Measured values as given in US20250228978A1, “ENGINEERING SUICIDE GENE APPROACHES TO IMPROVE CHEMOTHERAPEUTIC RESPONSE IN CANCER” (University of Virginia Patent Foundation, priority 0001, published 2025).

Legend:
CK2α and CK2α′ = experiment: CK2 catalytic subunit expression after TMZ or carboplatin (immunofluorescence); assay type: cell-based; conditions: U87 MG cells, drug treated
Experimental: FIGS. 36A and 36B. Effect of TMZ or carboplatin on CK2 expression. U87 MG cells were subjected to immunofluorescence microscopy using antibodies against the two CK2 catalytic (FIG. 36A: CK2α, FIG. 36B: CK2α′) subunits. Image is representative of n=3 replicates and data are plotted as mean±sd. A Student's t test was applied to determine the significance of observed differences; *, **, and *** indicate p=0.05, 0.01, or 0.001, respectively.
(§1) To determine if a CK2-regulated SGT would cooperate with chemotherapies used to treat glioblastoma, we measured the response of AKT-gen2 transductants to a combination of GCV with temozolomide (TMZ) or carboplatin. We hypothesized that a synergistic effect could occurs because CK2 contributes to DNA damage response and responds to stress signals; it seemed sensible that this could drive higher CK2 activity26,27,29.

[1] = tested on: U87 MG AKTgen2 transductants; experiment: Cell death by flow cytometry (TO-PRO-3), carboplatin pre-treatment followed by GCV; conditions: carboplatin 200 μM two days and/or GCV 50 μM three days
Experimental: Flow cytometry for cell death quantification. For cell death experiments, cells were plated in 6-well plates, and cell treatments were performed as described in figure legends. At the conclusion of experiments, floating and adherent cells were collected, resuspended in PBS containing TO-PRO-3 (Life Technologies, 1:10,000), and stored on ice until analysis. Within an hour of collection, cells were analyzed for TO-PRO-3 permeability with a FACSCalibur cytometer (BD Biosciences). Data collected from flow cytometry experiments was analyzed in R using the FlowCore, ggCyto, and OpenCyto packages.
Cells expressing AKT-gen2 were also pre-treated with DMSO or carboplatin (200 μM) for two days, followed by treatment with DMSO or GCV (50 μM) administration for three days. Cell death was then measured by flow cytometry through TOPRO staining.

[2] = tested on: U87 MG cells expressing AKT-gen2; experiment: Effect of chemotherapy on AKT-gen2 SGT (FLAG) expression; assay type: cell-based; conditions: 48 hr; for FLAG expression of AKT-gen2 SGT vs control: carboplatin 200 μM or TMZ 300 μM, immunoblot
Experimental: U87 MG cells expressing AKT-gen2 were treated with carboplatin (200 μM), TMZ (300 μM), or DMSO, and lysed after 48 hours. Densitometry was used to quantify the GAPDH-normalized FLAG signal.
Cells were also treated with carboplatin (125 μM) or DMSO for 48 hours and immunofluorescence microscopy was performed using antibodies against the proteins as shown in FIG. 29B. The expression of each variant was quantified as the mean FLAG expression on a per-cell basis.
as §1
Given that. We further examined the extent of carboplatin-mediated effects on CK2 expression increase through immunofluorescence microscopy (FIG. 29B). AKT-gen2 transductants were plated in 96-well glass-bottomed plates for imaging and treated with a reduced carboplatin concentration (125 μM) to promote the retention of adherent cells.
Because we observed increased CK2α and CK2α′ in carboplatin-treated cells (FIGS. 27A, 36A, and 36B), we next examined if the carboplatin-dependent increase in AKT-gen2 expression relies on CK2 expression. In U87 MG AKT-gen2 transductants expressing CK2 (α/α′ catalytic subunits) or control shRNA, CK2α knockdown abrogated the carboplatin-mediated increase in SGT expression (FIG. 29C).

[3] = tested on: G816 cells (glioma-initiating cell line); experiment: p38-regulated HSVtk constructs: FLAG abundance; assay type: cell-based, human; conditions: for FLAG expression of FLAG-NLS-HSVtk-MEF2A: two days, SB 203580 10 μM, trametinib 50 nM
Experimental: Referring to FIG. 18B, four designs tested included peptide sequences from the MAPK targets CHOP, MEF2A, p21, and FRA1. […] Sequences shown in blue were taken from proteins primarily phosphorylated by p38, while domains in gray were taken from the original FRA 1-PEST PEST design. The ERK recognition sequence was removed from these designs to improve specificity toward p38. G816 cells (glioma-initiating cell line) expressing each of the four HSVtk constructs were grown in 21% oxygen or 1% oxygen (hypoxia), with or without SB 203580 (p38 inhibitor, 10 μM for two days. Hypoxic induction of p38 phosphorylation promoted protein stabilization, which was abrogated with the addition of a p38 inhibitor to varying degrees for each construct.
Referring to FIG. 22A, G816-FLAG-NLS-HSVtk-MEF2A cells were treated with DMSO (vehicle), GCV (50 μM), or TMZ (500 μM) for up to 48 hours.
Referring to FIG. 22C, G816-FLAG-NLS-HSVtk-MEF2A cells were treated with DMSO (vehicle), SB 203580 (p38 inhibitor (p38i), 10 μM), or trametinib (MEK inhibitor (MEKi), 50 nM), in addition to TNFα, GCV, or TMZ for two days.

[4] = tested on: cells expressing yCD-FIRE; experiment: yCD-FIRE expression and 5-FC cell killing; assay type: cell-based

N.N.O=C([O-])C1(C(=O)[O-])CCC1.[Pt+2] [Carboplatin, carboplatin]
CK2α and CK2α′ expression (CK2α and CK2α′): stronger increase
reduction in cell viability [1]: ~15%
carboplatin-mediated increase in SGT expression ([2]; CK2α knockdown, carboplatin 200 μM): abrogated
FLAG expression of AKT-gen2 SGT ([2]; carboplatin 125 μM, immunofluorescence): significant enhancement in FLAG expression
FLAG expression of AKT-gen2 SGT vs control [2]: significant increase in FLAG expression
carboplatin-mediated change in SGT accumulation ([2]; cells expressing CK2α′ shRNA, carboplatin 200 μM): small but insignificant increase
carboplatin-mediated change in AKT-gen2 expression ([2]; cells expressing control shRNA, carboplatin 200 μM): significant increase

Nc1nc(=O)c2ncn(COC(CO)CO)c2[nH]1 [GCV, ganciclovir]
FLAG abundance of FLAG-NLS-HSVtk-MEF2A relative to vehicle ([3]; GCV 50 μM or TMZ 500 μM, 48 hours): increased FLAG abundance
FLAG expression of FLAG-NLS-HSVtk-MEF2A [3]: increased

C[S+]([O-])c1ccc(-c2nc(-c3ccncc3)c(-c3ccc(F)cc3)[nH]2)cc1 (stereo not drawn) [SB 203580]
FLAG expression of FLAG-NLS-HSVtk-MEF2A [3]: attenuated in some cases

Cn1nnc2c(C(N)=O)ncn2c1=O [TMZ, temozolomide]
FLAG expression of AKT-gen2 SGT vs control [2]: no effect

Nc1nc(=O)[nH]cc1F [Variant 5-FC, 5-fluorocytosine]
cell viability in response to 5-FC plus growth factors ([4]; cells expressing yCD-FIRE): decreases
5-FC IC50 ([4]; cells treated with growth factors vs not treated): lower

CC(=O)Nc1cccc(-n2c(=O)n(C3CC3)c(=O)c3c(Nc4ccc(I)cc4F)n(C)c(=O)c(C)c32)c1 [trametinib, N-[3-[3-cyclopropyl-5-(2-fluoro-4-iodoanilino)-6,8-dimethyl-2,4,7-trioxopyrido[4,3-d]pyrimidin-1-yl]phenyl]acetamide]
FLAG expression of FLAG-NLS-HSVtk-MEF2A [3]: promoted PEST stabilization

TNFα
FLAG expression of FLAG-NLS-HSVtk-MEF2A [3]: increased
